PubChem BioAssay AID463136 (University of Pittsburgh Molecular Library Screening Center, 2010)
Records with an inconclusive call do not appear. Activity calls are given as the source filed them. The rule behind the calls is not given here.

What was measured:
[1] = blockers of dynein-driven microtubule transport – imaging, high-content imaging, dose response (AID 463136); details: HCS imaging, dynein-mediated cargo transport inhibition; inhibition at max concentration; at 50 µM; stronger effect = higher value;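 note: mouse mammary adenocarcinoma 3617.4 cells expressing GFP-tagged rat glucocorticoid receptor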; for inhibition: reference of the scale not given here
[2] = system: HCS imaging, dynein-mediated cargo transport inhibition; assay: as above

Row | SMILES | inhibition [1] | IC50 [2]
1 | CC(=O)Nc1sc(/C(C#N)=C/c2ccc(Cl)c(Cl)c2)nc1-c1ccc(C)cc1 | 102% | 0.491 µM
2 | CCOC(=O)c1c(NC(=S)N2CCCCC2)sc2c1CCN(C(=O)OCC)C2 | 30.3% | > 50 µM (inactive)
3 | N#CC(C#N)=C1C=C2C=C(N3CCCCC3)CCC2CC1 (stereo not drawn) | 99.5% | 35.8 µM
4 | Cn1cc(Br)c(NC(=O)/C=C/C(=O)O)n1 | 6.1% | > 50 µM (inactive)
5 | Nc1c(C(=O)C2CC2)sc2nc(-c3cccs3)cc(C(F)(F)F)c12 | 66.4% | 38.7 µM
6 | CCn1c(SCC(=O)N2CCOCC2)nc2oc3c(Cl)cc(Cl)cc3c(=O)c2c1=O | 78.9% | 33 µM
7 | CCOc1ccccc1N1C(=O)CC(Sc2n[nH]c(-c3ccccc3)n2)C1=O (stereo not drawn) | 13.5% | > 50 µM (inactive)
8 | CCOC(=O)C(=Cc1cc(=O)c(OC)co1)C(=O)OCC | 87.9% | 6.45 µM
9 | Cc1ccc(N2C(=O)NC(=O)/C(=C/C=C/c3ccco3)C2=O)cc1 | 114% | 24.8 µM
10 | COC(CNC(=O)c1ccc2c3c(onc13)-c1ccccc1C2=O)OC | 99.6% | 29.3 µM
11 | Cc1cc(-n2c(C)cc(C(=O)CCl)c2C)no1 | 67.7% | 9.45 µM
12 | CC[n+]1c(/C=C2\Sc3ccccc3N2C)ccc2cccc(C)c21 | 28.3% | 0.765 µM
13 | Cc1nn(C)c(C(=O)Sc2cccc(Cl)c2)c1[N+](=O)[O-] | 10.5% | > 50 µM (inactive)
14 | C=CCSc1nc2ccccc2n1C(=O)/C=C/c1cc(OC)c(OC)c(OC)c1 | 25.5% | > 50 µM (inactive)
15 | CCc1ccc(N2C(=O)NC(=O)/C(=C\C=C\c3ccco3)C2=O)cc1 | 165% | 27.5 µM
16 | O=C(NC1CCCC1)C(c1ccc(Cl)cc1)N(Cc1ccc(F)cc1)C(=O)CCl (stereo not drawn) | 75.1% | 34.8 µM
17 | CC(=O)OCCCNc1cc(Sc2ccc(Cl)cc2)c2nonc2c1[N+](=O)[O-] | 60.4% | 41 µM
18 | Cc1cccc2cc3c(N)c(C(=O)N4CCc5ccccc54)sc3nc12 |  | 5.15 µM
19 | COc1ccccc1NS(=O)(=O)c1cc([N+](=O)[O-])ccc1N/N=C/c1c(C)[nH]c2ccccc12 | 16.5% | > 50 µM (inactive)
20 | Cn1ncc(S(=O)(=O)Cc2ccccc2)c(Cl)c1=O | 10.6% | > 50 µM (inactive)
21 | Cc1nc([N+](=O)[O-])c(Br)n1CC(=O)c1ccc(Cl)cc1 | 88.1% | 13.1 µM

Row | SMILES | inhibition [1] | IC50 [2]
22 | CCCCc1c(C)c(C#N)c2nc3ccccc3n2c1Cl | -60.6% | > 50 µM (inactive)
23 | Cc1cccc(N2C(=O)NC(=O)/C(=C\C=C\c3ccco3)C2=O)c1 | 89.4% | 33.4 µM
24 | C#CC(=O)N(c1ccc(OC)cc1OC)C(C(=O)NC1CCCC1)c1cccs1 (stereo not drawn) | 0.987% | > 50 µM (inactive)
25 | O=C1c2ccccc2-c2onc3ccc(NCc4ccco4)c1c23 | 87.2% | 41.4 µM
26 | COc1ccc(CCn2c(C)cc(C(=O)CCl)c2C)cc1OC | 82.1% | 9.84 µM
27 | COc1ccc(-c2nnc(Sc3nc4ccccc4o3)c3ccccc23)cc1 | 88.8% | 27.2 µM
28 | CC(C)(C)c1cnnn1-c1ccc(C(=O)CCl)cc1 | 67.1% | 6.44 µM
29 | CCCNC(=O)c1nnsc1S(=O)c1ccc(Cl)cc1 (stereo not drawn) | 77% | 7.07 µM
30 | CC1CCN(C(=O)c2ccc3c(Cl)c4c(nc3c2)CCCC4)CC1 | 76.6% | 21.4 µM
31 | COc1cc(/C=C2\COC/C(=C\c3ccc(O)c(OC)c3)C2=O)ccc1O | 64.3% | 39.7 µM
32 | Cc1cc(C(=O)CCl)c(C)n1Cc1ccco1 | 85.7% | 13.5 µM
33 | CC1(C)C[C@H]2C=C(C=O)[C@]3(C=O)C[C@]3(C)[C@H]2C1 | 78.6% | 12.9 µM
34 | COCCN(C(=O)CCl)C(C(=O)NC1CCCCC1)c1ccccc1C (stereo not drawn) | 79.5% | 24.8 µM
35 | O=C(NCc1cccnc1)/C(=C\c1ccc(-c2ccc(Br)cc2)o1)S(=O)(=O)c1ccccc1 | 55.1% | 39.4 µM
36 | CCOC(=O)C(=Cc1ccc(OCc2ccc([N+](=O)[O-])cc2)c(OC)c1)C(=O)OCC | 2.92% | > 50 µM (inactive)
37 | COC(=O)c1cc(=O)n(Cc2ccc(F)cc2)c(=Nc2ccccc2)s1 | 15.5% | > 50 µM (inactive)
38 | COc1ccc(C(CCN(Cc2ccc(OC)c(OC)c2)C(=O)CCl)c2ccccc2)cc1 (stereo not drawn) | 70.4% | 37 µM
39 | Cc1cccc(N(Cc2ccccc2)C(=O)CCl)c1 | 63.4% | 11.9 µM
40 | COc1cc(C2Oc3ccccc3C=C2[N+](=O)[O-])cc(OC)c1OC (stereo not drawn) | 63.7% | 25.5 µM
41 | O=C(CCl)N(Cc1ccccc1)c1ccccc1 | 69.4% | 10 µM
42 | O=C(CCl)c1ccc2c(c1)CCN2C(=O)C1CCCCC1 | 78.2% | 27 µM
